Experimental data reported in US20240018198A1, “MU-DIGUETOXIN-DC1A VARIANT POLYPEPTIDES FOR PEST CONTROL” (Vestaron Corporation, priority 2020, published 2024).
linker = not defined here; ERSP = not defined here

Assays:
[1] = test system: Corn earworm (Helicoverpa zea); experiment: Screen for mutants improving CEW activity (injection of concentrated supernatants); type: in vivo
Description: Mutations of Dc1a were made to screen for recovery of CEW activity. Here, mutants were synthesized and cloned according the methods described above. […] Supernatants were combined and concentrated 10× using centrifugal filtration cassettes (Pall) with a 3000 Da molecular weight cutoff. Concentrates were then injected into Corn earworm (Helicoverpa zea).
Corn earworm (CEW) larvae were injected in their fourth instar. Eggs of H zea were purchased (Benzon Research, 7 Kuhn Dr, Carlisle, PA, 17015) and reared to fourth instar on General Purpose Lepidoptera Diet (Frontier Agricultural Science, Newark, DE). Prior to injection larvae were weighed in order to calculate μmol/g doses. Injections volumes are 1 μL, and were performed with a 30 gauge needle and glass syringe in a hand microapplicator (Burkard, Rickmansworth, Herts, England). The injection site was near the base of one of the hindmost prolegs. Following the injection, larvae are placed in a new enclosure with General Purpose Lepidoptera Diet and their condition (including mortality, sublethal effects, and behavior) is evaluated 24-hours post-injection.

[2] = test system: Adult houseflies (Musca domestica); experiment: Housefly injection assay with plant-expressed proteins (TSP extract); type: in vivo; settings: 2 hours post-injection; 0.5 μL TSP extract per fly; impacted = knock-down and dead
Description: Full length DVP-insecticidal protein was purified from the tobacco by using a manual extraction technique. Leaf tissue was obtained via 30 mm diameter punch, from the infiltrated area, rolled up and placed inside a 2 mL conical bottom tube with two, 5/32 inch diameter stainless steel grinding balls, and frozen in liquid nitrogen. The samples were then homogenized using a Troemner-Talboys High Throughput Homogenizer. Next, a 750 μL ice-cold total soluble protein (TSP) extraction solution (sodium phosphate solution 50 mM, EDTA 1 mM, pH 7.0) was added into the tube and vortexed. The microtube was then left to incubate at room temperature for 15 minutes, and then centrifuged at 16,000×g for 15 minutes at 4° C. Next, 100 μL of the resulting supernatant was taken and loaded into pre-Sephadex G-50-packed column in 0.45 μm Millipore MultiScreen filter microtiter plate with empty receiving Costar microtiter plate on bottom. The microtiter plates were then centrifuged at 800 g for 2 minutes at 4° C. The resulting filtrate solution (hereinafter “total soluble protein extract” or “TSP extract”) of the tobacco leaves, was ready for downstream analysis.
Houseflies were injected with the TSP extract obtained from the plant extraction process described above. Prior to injection, adult houseflies (Musca domestica) were immobilized with CO2, and selected for injection based on weight (12-20 mg). […] Impacted scores include knock-down and dead.

Substance: C41K/C51E/D38A/L42V: Mu-diguetoxin-Dc1a variant polypeptide; printed sequences differ at position 41 (D in Table 1, K in Table 9) (AKDGDVEGPAGCKKYDVECDSGECCQKQYLWYKWRPLACRKVKSGFFSSKEVCRDV; C41K/ C51E/ D38A/ L42V DVP)
- Activity ([1]; Table 9: CEW fourth instar, 10x concentrated supernatants, 1 μL injection, 24 hours): Yes
- CEW KD50 ([1]; Table 10: category relative to WT): Reduced (Reduced=>1.5)

Substance: M1: plant-expressed DVP-insecticidal protein ERSP-UBI-L-DVP-HIS, DVP SEQ ID NO 187 ({ERSP-ubiquitin-linker}-AKDGDVEGPAGCKKYDVECDSGECCQKQYLWSKWRALDCRCLKSGFFSSKCVCRDV-{His tag}; cysteine pairing not given here; reading uncertain)
- % Impacted [2]: 60%

Substance: M2: plant-expressed DVP-insecticidal protein ERSP-UBI-L-DVP-HIS, DVP SEQ ID NO 188 ({ERSP-ubiquitin-linker}-AKDGDVEGPAGCKKYDVECDSGECCQKQYLWKKWRALDCRCLKSGFFSSKCVCRDV-{His tag}; cysteine pairing not given here; reading uncertain)
- % Impacted [2]: 60%

Substance: M3: plant-expressed DVP-insecticidal protein ERSP-UBI-L-DVP-HIS, DVP SEQ ID NO 189 ({ERSP-ubiquitin-linker}-AKDGDVEGPAGCKKYDVECDSGECCQKQYLWHKWRALDCRCLKSGFFSSKCVCRDV-{His tag}; cysteine pairing not given here; reading uncertain)
- % Impacted [2]: 80%

Substance: M4: plant-expressed DVP-insecticidal protein ERSP-UBI-L-DVP-HIS, DVP SEQ ID NO 190 ({ERSP-ubiquitin-linker}-AKDGDVEGPAGCKKYDVECDSGECCQKQYLFSKWRPLDCRCLKSGFFSSKCVCRDV-{His tag}; cysteine pairing not given here; reading uncertain)
- % Impacted [2]: 100%
